Data as given in ChEMBL document CHEMBL4673352, “Discovery of AZD4573, a Potent and Selective Inhibitor of CDK9 That Enables Short Duration of Target Engagement for the Treatment of Hematological Malignancies” (J Med Chem, 2020).
In brackets after ≈: the same amount, converted by molar mass.

Target: T1, Cyclin-dependent kinase 9 (Homo sapiens, UniProt P50750)
Test: Inhibition of CDK9 in human MV4-11 cells assessed as induction of caspase-3/7 activation measured after 6 hrs followed by Caspase-glo reagent based assay
Format: cell-based
Conditions: not given

T1 sequence (P50750 whole entry): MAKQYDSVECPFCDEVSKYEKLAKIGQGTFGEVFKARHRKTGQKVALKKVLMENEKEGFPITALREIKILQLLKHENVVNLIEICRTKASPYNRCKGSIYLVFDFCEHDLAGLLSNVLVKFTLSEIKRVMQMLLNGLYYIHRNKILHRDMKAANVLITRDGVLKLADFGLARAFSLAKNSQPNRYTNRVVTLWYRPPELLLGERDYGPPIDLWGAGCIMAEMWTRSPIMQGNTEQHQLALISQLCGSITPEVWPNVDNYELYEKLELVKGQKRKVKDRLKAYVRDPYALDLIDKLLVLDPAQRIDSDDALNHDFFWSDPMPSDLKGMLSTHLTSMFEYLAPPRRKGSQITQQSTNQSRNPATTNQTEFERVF

EC50 | Structure (SMILES)
15 nM | CC(=O)N[C@@H]1CC[C@H](C(=O)Nc2cc(-c3cnn4c3CC(C)(C)C4)c(Cl)cn2)C1
440 nM | CC(=O)N[C@@H]1CCC[C@H](C(=O)Nc2cc(-c3cnn4c3CCCC4)ccn2)C1
260 nM | CC(=O)N[C@@H]1CCC[C@H](C(=O)Nc2cc(-c3cnn4c3OCCC4)c(Cl)cn2)C1
1900 nM | CC(=O)N[C@@H]1CCC[C@H](C(=O)Nc2cc(-c3cnn4c3COCC4)c(Cl)cn2)C1
77 nM | CC(=O)N[C@@H]1CCC[C@H](C(=O)Nc2cc(-c3cnn4c3CC(C)C4)c(Cl)cn2)C1 (stereo in doubt; 27)
660 nM | CC(=O)N[C@@H]1CCC[C@H](C(=O)Nc2cc(-c3cnc(C)n3C(C)C)ccn2)C1
140 nM | CC(=O)N[C@@H]1CCC[C@H](C(=O)Nc2cc(-c3cnn4c3CC(C)(C)C4)c(C#N)cn2)C1
39 nM | CC(=O)N[C@@H]1CCC[C@H](C(=O)Nc2cc(-c3cnn4c3CC(C)(C)CC4)ccn2)C1

Target: CDK9/cyclin T1 (Homo sapiens, UniProt P50750)
Test: Inhibition of recombinant full length human N-terminal GST-fused CDK9 (1 to 372 residues)/His-tagged CyclinT1 (1 to 726 residues) expressed in baculovirus infected insect cells using FITC-X-GSRTPMY-NH2 as substrate preincubated for 10 mins followed by MgCl2 addition and measured after 90 mins in presence of 5 mM ATP by mobility shift assay
Conditions: not given

Chain of CDK9/cyclin T1 (O60563 whole entry, the tested form may be a part): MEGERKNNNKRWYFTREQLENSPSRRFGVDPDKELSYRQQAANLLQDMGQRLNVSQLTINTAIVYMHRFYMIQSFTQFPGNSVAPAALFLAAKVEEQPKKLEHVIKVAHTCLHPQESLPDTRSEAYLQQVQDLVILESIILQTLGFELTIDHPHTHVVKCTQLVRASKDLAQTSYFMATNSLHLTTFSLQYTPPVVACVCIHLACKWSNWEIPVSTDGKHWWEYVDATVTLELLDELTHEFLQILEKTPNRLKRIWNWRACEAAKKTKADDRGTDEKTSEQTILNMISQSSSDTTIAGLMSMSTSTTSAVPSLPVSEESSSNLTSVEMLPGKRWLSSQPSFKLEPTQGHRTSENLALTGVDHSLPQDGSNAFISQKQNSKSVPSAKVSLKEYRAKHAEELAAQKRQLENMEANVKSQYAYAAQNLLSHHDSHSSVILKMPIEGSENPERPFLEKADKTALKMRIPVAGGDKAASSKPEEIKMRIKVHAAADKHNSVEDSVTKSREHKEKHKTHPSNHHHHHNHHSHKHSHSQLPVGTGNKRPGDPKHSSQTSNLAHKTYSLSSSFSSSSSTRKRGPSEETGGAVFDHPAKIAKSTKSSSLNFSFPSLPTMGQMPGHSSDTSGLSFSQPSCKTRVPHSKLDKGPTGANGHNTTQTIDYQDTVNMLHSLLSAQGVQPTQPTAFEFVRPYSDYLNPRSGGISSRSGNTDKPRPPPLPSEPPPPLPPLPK
Chain of CDK9/cyclin T1 (P50750 whole entry, the tested form may be a part): as the sequence (P50750 whole entry) above

IC50 | Structure (SMILES)
230 nM | CC(=O)N[C@@H]1CCC[C@H](C(=O)Nc2cc(-c3cnn4c3CCCC4)ccn2)C1
110 nM | CC(=O)N[C@@H]1CCC[C@H](C(=O)Nc2cc(-c3cnn4c3OCCC4)c(Cl)cn2)C1
1000 nM | CC(=O)N[C@@H]1CCC[C@H](C(=O)Nc2cc(-c3cnn4c3COCC4)c(Cl)cn2)C1
27 nM | CC(=O)N[C@@H]1CCC[C@H](C(=O)Nc2cc(-c3cnn4c3CC(C)C4)c(Cl)cn2)C1 (stereo in doubt; 27)
380 nM | CC(=O)N[C@@H]1CCC[C@H](C(=O)Nc2cc(-c3cnc(C)n3C(C)C)ccn2)C1

Tested on: not listed separately
Test: Solubility of compound in phosphate buffer at pH 7.4 using dried form of sample
Format: physicochemical
Conditions: buffer

solubility | Structure (SMILES)
159 µM (≈ 66.1 µg/mL) | CC(=O)N[C@@H]1CCC[C@H](C(=O)Nc2cc(-c3cnn4c3CC(C)C4)c(Cl)cn2)C1 (stereo in doubt; 27)

Same assay, conditions: phosphate buffer, read-out: solubility

solubility | Structure (SMILES)
35 µM (≈ 14.6 µg/mL) | CC(=O)N[C@@H]1CC[C@H](C(=O)Nc2cc(-c3cnn4c3CC(C)(C)C4)c(Cl)cn2)C1
730 µM (≈ 278 µg/mL) | CC(=O)N[C@@H]1CCC[C@H](C(=O)Nc2cc(-c3cnn4c3CCCC4)ccn2)C1
110 µM (≈ 46 µg/mL) | CC(=O)N[C@@H]1CCC[C@H](C(=O)Nc2cc(-c3cnn4c3OCCC4)c(Cl)cn2)C1
220 µM (≈ 91.9 µg/mL) | CC(=O)N[C@@H]1CCC[C@H](C(=O)Nc2cc(-c3cnn4c3COCC4)c(Cl)cn2)C1
660 µM (≈ 253 µg/mL) | CC(=O)N[C@@H]1CCC[C@H](C(=O)Nc2cc(-c3cnc(C)n3C(C)C)ccn2)C1
380 µM (≈ 160 µg/mL) | CC(=O)N[C@@H]1CCC[C@H](C(=O)Nc2cc(-c3cnn4c3CC(C)(C)C4)c(C#N)cn2)C1
640 µM (≈ 262 µg/mL) | CC(=O)N[C@@H]1CCC[C@H](C(=O)Nc2cc(-c3cnn4c3CC(C)(C)CC4)ccn2)C1

Tested on: not listed separately
Test: Lipophilicity, log D of compound in buffer/octanol at pH 7.4 by shake flask method
Format: physicochemical
Conditions: not given

logD | Structure (SMILES)
3.5 | CC(=O)N[C@@H]1CC[C@H](C(=O)Nc2cc(-c3cnn4c3CC(C)(C)C4)c(Cl)cn2)C1
2.4 | CC(=O)N[C@@H]1CCC[C@H](C(=O)Nc2cc(-c3cnn4c3CCCC4)ccn2)C1
2.6 | CC(=O)N[C@@H]1CCC[C@H](C(=O)Nc2cc(-c3cnn4c3OCCC4)c(Cl)cn2)C1
2.4 | CC(=O)N[C@@H]1CCC[C@H](C(=O)Nc2cc(-c3cnn4c3COCC4)c(Cl)cn2)C1
1.9 | CC(=O)N[C@@H]1CCC[C@H](C(=O)Nc2cc(-c3cnc(C)n3C(C)C)ccn2)C1
3.2 | CC(=O)N[C@@H]1CCC[C@H](C(=O)Nc2cc(-c3cnn4c3CC(C)(C)C4)c(C#N)cn2)C1
3.1 | CC(=O)N[C@@H]1CCC[C@H](C(=O)Nc2cc(-c3cnn4c3CC(C)(C)CC4)ccn2)C1

Target: T1, Cyclin-dependent kinase 9
Test: Inhibition of CDK9 in human MCF7 cells assessed as reduction in RNA Polymerase 2 CTD phosphorylation at Ser2 residues measured after 6 hrs by immunofluorescence assay
Format: cell-based
Conditions: not given

IC50 | Structure (SMILES)
40 nM | CC(=O)N[C@@H]1CC[C@H](C(=O)Nc2cc(-c3cnn4c3CC(C)(C)C4)c(Cl)cn2)C1
520 nM | CC(=O)N[C@@H]1CCC[C@H](C(=O)Nc2cc(-c3cnn4c3CCCC4)ccn2)C1
350 nM | CC(=O)N[C@@H]1CCC[C@H](C(=O)Nc2cc(-c3cnn4c3OCCC4)c(Cl)cn2)C1
2100 nM | CC(=O)N[C@@H]1CCC[C@H](C(=O)Nc2cc(-c3cnn4c3COCC4)c(Cl)cn2)C1
77 nM | CC(=O)N[C@@H]1CCC[C@H](C(=O)Nc2cc(-c3cnn4c3CC(C)C4)c(Cl)cn2)C1 (stereo in doubt; 27)
920 nM | CC(=O)N[C@@H]1CCC[C@H](C(=O)Nc2cc(-c3cnc(C)n3C(C)C)ccn2)C1
150 nM | CC(=O)N[C@@H]1CCC[C@H](C(=O)Nc2cc(-c3cnn4c3CC(C)(C)C4)c(C#N)cn2)C1
48 nM | CC(=O)N[C@@H]1CCC[C@H](C(=O)Nc2cc(-c3cnn4c3CC(C)(C)CC4)ccn2)C1

Tested on: not listed separately
Test: Intrinsic clearance in human liver microsome
Format: ADME, microsomes
Conditions: liver microsomes, read-out: CLH

microsomal CLint | Structure (SMILES)
38 µL/min/mg | CC(=O)N[C@@H]1CC[C@H](C(=O)Nc2cc(-c3cnn4c3CC(C)(C)C4)c(Cl)cn2)C1
< 3 µL/min/mg | CC(=O)N[C@@H]1CCC[C@H](C(=O)Nc2cc(-c3cnn4c3CCCC4)ccn2)C1
< 3 µL/min/mg | CC(=O)N[C@@H]1CCC[C@H](C(=O)Nc2cc(-c3cnn4c3OCCC4)c(Cl)cn2)C1
< 3 µL/min/mg | CC(=O)N[C@@H]1CCC[C@H](C(=O)Nc2cc(-c3cnn4c3COCC4)c(Cl)cn2)C1
3.6 µL/min/mg | CC(=O)N[C@@H]1CCC[C@H](C(=O)Nc2cc(-c3cnc(C)n3C(C)C)ccn2)C1
26 µL/min/mg | CC(=O)N[C@@H]1CCC[C@H](C(=O)Nc2cc(-c3cnn4c3CC(C)(C)C4)c(C#N)cn2)C1
29 µL/min/mg | CC(=O)N[C@@H]1CCC[C@H](C(=O)Nc2cc(-c3cnn4c3CC(C)(C)CC4)ccn2)C1

Same assay, conditions: microsomes

CLH | Structure (SMILES)
18 µL/min/mg | CC(=O)N[C@@H]1CCC[C@H](C(=O)Nc2cc(-c3cnn4c3CC(C)C4)c(Cl)cn2)C1 (stereo in doubt; 27)

Tested on: not listed separately
Test: Intrinsic clearance in rat cryopreserved hepatocytes assessed per million cells […]
Format: ADME, cell-based, Hepatocyte
Conditions: cryopreserved hepatocytes, read-out: CLH

hepatocyte CLint | Structure (SMILES)
97 µL/min/1e6 cells | CC(=O)N[C@@H]1CC[C@H](C(=O)Nc2cc(-c3cnn4c3CC(C)(C)C4)c(Cl)cn2)C1
33 µL/min/1e6 cells | CC(=O)N[C@@H]1CCC[C@H](C(=O)Nc2cc(-c3cnn4c3CCCC4)ccn2)C1
34 µL/min/1e6 cells | CC(=O)N[C@@H]1CCC[C@H](C(=O)Nc2cc(-c3cnn4c3OCCC4)c(Cl)cn2)C1
18 µL/min/1e6 cells | CC(=O)N[C@@H]1CCC[C@H](C(=O)Nc2cc(-c3cnn4c3COCC4)c(Cl)cn2)C1
7.4 µL/min/1e6 cells | CC(=O)N[C@@H]1CCC[C@H](C(=O)Nc2cc(-c3cnc(C)n3C(C)C)ccn2)C1
47 µL/min/1e6 cells | CC(=O)N[C@@H]1CCC[C@H](C(=O)Nc2cc(-c3cnn4c3CC(C)(C)C4)c(C#N)cn2)C1
35 µL/min/1e6 cells | CC(=O)N[C@@H]1CCC[C@H](C(=O)Nc2cc(-c3cnn4c3CC(C)(C)CC4)ccn2)C1

Same assay, conditions: hepatocytes

CLH | Structure (SMILES)
85 µL/min | CC(=O)N[C@@H]1CCC[C@H](C(=O)Nc2cc(-c3cnn4c3CC(C)C4)c(Cl)cn2)C1 (stereo in doubt; 27)

Tested on: not listed separately
Test: Intrinsic clearance in human cryopreserved hepatocytes assessed per million cells […]
Format: ADME, cell-based, Hepatocyte
Conditions: read-out: CLH

hepatocyte CLint | Structure (SMILES)
5.8 µL/min/1e6 cells | CC(=O)N[C@@H]1CC[C@H](C(=O)Nc2cc(-c3cnn4c3CC(C)(C)C4)c(Cl)cn2)C1
< 1 µL/min/1e6 cells | CC(=O)N[C@@H]1CCC[C@H](C(=O)Nc2cc(-c3cnn4c3CC(C)(C)C4)c(C#N)cn2)C1
4.3 µL/min/1e6 cells | CC(=O)N[C@@H]1CCC[C@H](C(=O)Nc2cc(-c3cnn4c3CC(C)(C)CC4)ccn2)C1
